# Results as given in patent US20260007133A1, “HERBICIDAL COMPOSITION COMPRISING AZINE COMPOUNDS” (BASF SE, priority 2022, published 2026).
# Where two headings read alike, the source gives them in different places.
# Columns and labels:
# Type in all cases: in vivo
# Lolium multiflorum = test: Greenhouse pre-emergence (PRE) herbicidal test on LOLMU; conditions: for inhibition at 200 g/ha: use rate 200 gai/ha
# Method in brief: (§1)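 Herbicidal effect was assessed 20 DAT after pre-emergence treatment of sown pots, using a 0-100 scale where 100 means no emergence or destruction of at least the above-ground parts.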
# Ambrosia artemisiifolia = test: Greenhouse pre-emergence (PRE) herbicidal test on AMBEL; conditions: PRE, 20 DAT
# AMAPA [1] = test: Greenhouse post-emergence (POST) herbicidal test on AMAPA; conditions: use rate 12.5 gai/ha, 20 DAT
# AMAPA [2] = test: Greenhouse pre-emergence (PRE) herbicidal test on AMAPA; conditions: use rate 3.1 gai/ha, 20 DAT
# Abutilon theophrasti [3] = test: Greenhouse pre-emergence (PRE) herbicidal test on ABUTH
# Method in brief: as §1
# Geranium pusillum [4] = test: Greenhouse pre-emergence (PRE) herbicidal test on GERPU; conditions: Geranium pusillum, pre-emergence; for inhibition at 200 g/ha: use rate 200 gai/ha
# From the text: (§2) The culture containers used were plastic pots containing loamy sand with approximately 3.0% of humus as substrate. The seeds of the test plants were sown separately for each species.
# (§3) For the pre-emergence treatment, the active compounds, suspended or emulsified in water, were applied directly after sowing by means of finely distributing nozzles. The containers were irrigated gently to promote germination and growth and subsequently covered with transparent plastic hoods until the plants had rooted. This cover caused uniform germination of the test plants unless this was adversely affected by the active compounds.
# (§4) Depending on the species, the plants were kept at 10-25° C. and 20-35° C., respectively.
# (§5) The test period extended over 2 to 4 weeks. During this time, the plants were tended and their response to the individual treatments was evaluated.
# (§6) Evaluation was carried out using a scale from 0 to 100. 100 means no emergence of the plants, or complete destruction of at least the above-ground parts, and 0 means no damage or normal course of growth. A good herbicidal activity is given at values of at least 70, and very good herbicidal activity is given at values of at least 85.
# (§7) If not stated differently, the respective components A and B, and if appropriate, C were formulated as a 5% by weight strength emulsion concentrate and, with addition of the amount of solvent system, introduced into the spray liquor used for applying the active compound.
# (§8) As indicated application was either post emergent (POST) at the respective growth stage (GS) of the weed (BBCH code), or pre-emergent (PRE).
# (§9) Assessment was 20 days after treatment (DAT).
# Avena fatua = test: Greenhouse pre-emergence (PRE) herbicidal test on AVEFA
# From the text: as §2, §3, §4, §5, §6, §7, §8, §9
# Alopecurus myosuroides = test: Greenhouse pre-emergence (PRE) herbicidal test on ALOMY; conditions: Alopecurus myosuroides, pre-emergence
# Method in brief: as §1
# Brachiaria decumbens = test: Greenhouse pre-emergence (PRE) herbicidal test on BRADC; conditions: Urochloa decumbens; for inhibition at 200 g/ha: use rate 200 gai/ha
# From the text: as §2, §3, §4, §5, §6, §7, §8, §9
# SETFA = test: Greenhouse pre-emergence (PRE) herbicidal test on SETFA; conditions: Setaria faberi, use rate 50 gai/ha
# Commelina benghalensis [5] = test: Greenhouse pre-emergence (PRE) herbicidal test on COMBE; conditions: Commelina benghalensis, pre-emergence
# Method in brief: as §1
# Euphorbia heterophylla = test: Greenhouse pre-emergence (PRE) herbicidal test on EPHHL; conditions: for inhibition at 200 g/ha: use rate 200 gai/ha
# Method in brief: as §1
# Galium aparine = test: Greenhouse pre-emergence (PRE) herbicidal test on GALAP; conditions: PRE, GALAP; for inhibition at 200 g/ha: use rate 200 gai/ha
# From the text: as §2, §3, §4, §5, §6, §7, §8, §9
# Polygonum convolvulus = test: Greenhouse pre-emergence (PRE) herbicidal test on POLCO
# From the text: as §2, §3, §4, §5, §6, §7, §8, §9
# Commelina benghalensis [6] = test: Greenhouse post-emergence (POST) herbicidal test on COMBE; conditions: 480 h, use rate 1.25 gai/ha, 20 DAT
# Method: as §2
# (§10) For the post-emergence treatment, the test plants were grown to a plant height of from 3 to 15 cm, depending on the plant habit, and only then treated with the active compounds which had been suspended or emulsified in water. To this end, the test plants were either sown directly, and grown in the same containers, or they were first grown separately as seedlings and transplanted into the test containers a few days prior to treatment.
# as §4, §5, §6, §7, §8, §9
# Amaranthus retroflexus [7] = test: Greenhouse pre-emergence (PRE) herbicidal test on AMARE; conditions: Amaranthus retroflexus, pre-emergence, 480 h; PRE, AMARE, 1.25 gai/ha, 20 DAT; read-out: % activity solo application
# Method in brief: as §1
# Digitaria sanguinalis = test: Greenhouse post-emergence (POST) herbicidal test on DIGSA; conditions: Digitaria sanguinalis, post-emergence, 480 h, POST, DIGSA, 5 gai/ha, 20 DAT; read-out: % activity solo application
# Method in brief: (§11)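 Plants grown in pots of loamy sand (~3.0% humus) to 3–15 cm height, then sprayed with compounds suspended or emulsified in water (formulated as 5% by weight emulsion concentrate). Kept at 10-25° C or 20-35° C by species; injury scored 0–100 (100 = complete destruction) at 20 DAT.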
# Setaria viridis [8] = test: Greenhouse post-emergence (POST) herbicidal test on SETVI; conditions: 480 h, use rate 5 gai/ha, 20 DAT
# Method: as §2, §10, §4, §5, §6, §7, §8, §9
# Setaria viridis [9] = test: Greenhouse pre-emergence (PRE) herbicidal test on SETVI; conditions: Setaria viridis, pre-emergence, 480 h, PRE, SETVI, 20 DAT, read-out: % activity solo application
# Method in brief: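 First, each species was sown separately in loamy sand containing about 3.0% humus. Then the aqueous active compound was applied by finely distributing nozzles straight after sowing, pots were gently irrigated and covered with transparent hoods, and injury was assessed on a 0–100 scale at 20 DAT.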
# Geranium pusillum [10] = test: Greenhouse post-emergence (POST) herbicidal test on GERPU; conditions: Geranium pusillum, post-emergence, 480 h, POST, GERPU, 20 DAT
# Method in brief: as §11
# Echinochloa crus-galli = test: Greenhouse pre-emergence (PRE) herbicidal test on ECHCG; conditions: Echinochloa crus-galli, pre-emergence, 480 h, PRE, ECHCG, 20 DAT, read-out: % activity solo application
# Ipomoea hederacea [11] = test: Greenhouse pre-emergence (PRE) herbicidal test on IPOHE; conditions: Ipomoea hederacea, pre-emergence, 480 h, PRE, IPOHE, 20 DAT
# From the text: as §2, §3, §4, §5, §6, §7, §8, §9
# Ipomoea hederacea [12] = test: Greenhouse post-emergence (POST) herbicidal test on IPOHE; conditions: Ipomoea hederacea, post-emergence, 480 h, POST, IPOHE, 20 DAT, read-out: % activity solo application
# Method in brief: as §11
# Amaranthus retroflexus [13] = test: Greenhouse post-emergence (POST) herbicidal test on AMARE; conditions: Amaranthus retroflexus, post-emergence, 480 h, POST, AMARE, 20 DAT, read-out: % activity solo application
# Method in brief: as §11
# Abutilon theophrasti [14] = test: Greenhouse post-emergence (POST) herbicidal test on ABUTH; conditions: Abutilon theophrasti, post-emergence, 480 h, POST, ABUTH, 20 DAT, read-out: % activity solo application
# Method in brief: as §11
structure (smiles),measurement,setting,value
"C#CCN(C)c1c(C#N)cnn1-c1nn2c(c1Cl)CCCC2 [Pyraclonil, pyraclonil]",% activity,"Lolium multiflorum; PRE, use rate 12.5 gai/ha, 20 DAT",0%
same,% activity,Ambrosia artemisiifolia; use rate 12.5 gai/ha,0%
same,% activity,AMAPA [1],90%
same,% activity,AMAPA [2],50%
"CCCCOCN(C(=O)CCl)c1c(CC)cccc1CC [Butachlor, butachlor]",inhibition at 50 g/ha,"Lolium multiflorum; Lolium multiflorum, pre-emergence, LOLMU PRE, use rate 50 gai/ha",0%
same,inhibition at 200 g/ha,"Lolium multiflorum; Lolium multiflorum, pre-emergence, LOLMU PRE",0%
same,inhibition at 50 g/ha,"Abutilon theophrasti [3]; Abutilon theophrasti, pre-emergence, ABUTH PRE, use rate 50 gai/ha",0%
same,inhibition at 50 g/ha,"Geranium pusillum [4]; GERPU PRE, use rate 50 gai/ha",55%
same,inhibition at 200 g/ha,Geranium pusillum [4]; GERPU PRE,25%
same,inhibition at 50 g/ha,Avena fatua; use rate 50 gai/ha,0%
same,inhibition at 200 g/ha,Avena fatua; use rate 200 gai/ha,0%
same,inhibition at 200 g/ha,"Alopecurus myosuroides; ALOMY PRE, use rate 200 gai/ha",0%
same,inhibition at 200 g/ha,Brachiaria decumbens; BRADC PRE,30%
same,inhibition at 50 g/ha,SETFA,25%
same,inhibition at 50 g/ha,"Commelina benghalensis [5]; COMBE PRE, use rate 50 gai/ha",70%
same,inhibition at 200 g/ha,"Euphorbia heterophylla; Euphorbia heterophylla, pre-emergence, EPHHL PRE",5%
"CCCOCCN(C(=O)CCl)c1c(CC)cccc1CC [Pretilachlor, pretilachlor]",inhibition at 200 g/ha,"Galium aparine; Galium aparine, pre-emergence",15%
same,inhibition at 25 g/ha,"Lolium multiflorum; Lolium multiflorum, pre-emergence, PRE, LOLMU, use rate 25 gai/ha",0%
same,inhibition at 200 g/ha,"Geranium pusillum [4]; PRE, GERPU",45%
same,inhibition at 25 g/ha,"Brachiaria decumbens; PRE, BRADC, use rate 25 gai/ha",0%
same,inhibition at 200 g/ha,"Brachiaria decumbens; PRE, BRADC",40%
same,inhibition at 25 g/ha,"Euphorbia heterophylla; Euphorbia heterophylla, pre-emergence, PRE, EPPHL, use rate 25 gai/ha",0%
same,inhibition at 200 g/ha,"Euphorbia heterophylla; Euphorbia heterophylla, pre-emergence, PRE, EPPHL",10%
same,inhibition at 25 g/ha,"Polygonum convolvulus; Fallopia convolvulus, pre-emergence, use rate 25 gai/ha",0%
same,inhibition at 200 g/ha,"Polygonum convolvulus; Fallopia convolvulus, pre-emergence, use rate 200 gai/ha",30%
"CCC(CC)Nc1c([N+](=O)[O-])cc(C)c(C)c1[N+](=O)[O-] [Pendimethalin, pendimethalin]",inhibition at 200 g/ha,"Galium aparine; Galium aparine, pre-emergence",0%
same,inhibition at 800 g/ha,"Galium aparine; Galium aparine, pre-emergence, use rate 800 gai/ha",10%
same,inhibition at 200 g/ha,"Lolium multiflorum; Lolium multiflorum, pre-emergence, PRE, LOLMU",0%
same,inhibition at 200 g/ha,"Abutilon theophrasti [3]; Abutilon theophrasti, pre-emergence, PRE, ABUTH, use rate 200 gai/ha",65%
same,inhibition at 200 g/ha,"Commelina benghalensis [5]; PRE, COMBE, use rate 200 gai/ha",40%
same,inhibition at 800 g/ha,"Commelina benghalensis [5]; PRE, COMBE, use rate 800 gai/ha",50%
same,inhibition at 800 g/ha,"Polygonum convolvulus; Fallopia convolvulus, pre-emergence, use rate 800 gai/ha",70%
"CC(C)N(C)S(=O)(=O)NC(=O)c1cc(-n2c(=O)cc(C(F)(F)F)n(C)c2=O)c(F)cc1Cl [Saflufenacil, saflufenacil]",inhibition at 1.25 g/ha,"Lolium multiflorum; Lolium multiflorum, pre-emergence, 480 h, PRE, LOLMU, 1.25 gai/ha, 20 DAT, read-out: % activity solo application",0%
same,inhibition at 5 g/ha,"Lolium multiflorum; Lolium multiflorum, pre-emergence, 480 h, PRE, LOLMU, 5 gai/ha, 20 DAT, read-out: % activity solo application",0%
same,inhibition at 5 g/ha,"Lolium multiflorum; Lolium multiflorum, pre-emergence, 480 h, PRE, LOLMU, use rate 5 gai/ha, 20 DAT, read-out: % activity",45%
same,inhibition at 1.25 g/ha,"Abutilon theophrasti [3]; Abutilon theophrasti, pre-emergence, 480 h, PRE, ABUTH, 1.25 gai/ha, 20 DAT, read-out: % activity solo application",10%
same,inhibition at 1.25 g/ha,"Ambrosia artemisiifolia; Ambrosia artemisiifolia, pre-emergence, 480 h, AMBEL, 1.25 gai/ha, read-out: % activity solo application",0%
same,inhibition at 5 g/ha,"Ambrosia artemisiifolia; Ambrosia artemisiifolia, pre-emergence, 480 h, AMBEL, 5 gai/ha, read-out: % activity solo application",50%
same,inhibition at 1.25 g/ha,Commelina benghalensis [6],60%
same,inhibition at 1.25 g/ha,Amaranthus retroflexus [7],0%
same,inhibition at 5 g/ha,Digitaria sanguinalis,0%
same,inhibition at 5 g/ha,Setaria viridis [8],60%
same,inhibition at 1.25 g/ha,"Alopecurus myosuroides; 480 h, PRE, ALOMY, 1.25 gai/ha, 20 DAT, read-out: % activity solo application",20%
same,inhibition at 5 g/ha,"Alopecurus myosuroides; 480 h, PRE, ALOMY, 5 gai/ha, 20 DAT, read-out: % activity solo application",10%
same,inhibition at 1.25 g/ha,Setaria viridis [9]; 1.25 gai/ha,0%
same,inhibition at 5 g/ha,Setaria viridis [9]; 5 gai/ha,0%
same,inhibition at […],Geranium pusillum [10]; use rate 2.5 gai/ha,60%
same,inhibition at 5 g/ha,"Geranium pusillum [10]; use rate 5 gai/ha, read-out: % activity",80%
same,inhibition at 1.25 g/ha,Echinochloa crus-galli; 1.25 gai/ha,0%
same,inhibition at 5 g/ha,Echinochloa crus-galli; 5 gai/ha,0%
same,inhibition at […],Ipomoea hederacea [11]; use rate 2.5 gai/ha,5%
same,inhibition at 5 g/ha,Ipomoea hederacea [11]; use rate 5 gai/ha,25%
same,inhibition at 1.25 g/ha,"Commelina benghalensis [5]; 480 h, PRE, COMBE, 1.25 gai/ha, 20 DAT, read-out: % activity solo application",5%
same,inhibition at 1.25 g/ha,"Euphorbia heterophylla; Euphorbia heterophylla, pre-emergence, 480 h, PRE, EPHHL, 1.25 gai/ha, 20 DAT, read-out: % activity solo application",5%
same,inhibition at 5 g/ha,"Euphorbia heterophylla; Euphorbia heterophylla, pre-emergence, 480 h, PRE, EPHHL, 5 gai/ha, 20 DAT, read-out: % activity solo application",50%
same,inhibition at 1.25 g/ha,Ipomoea hederacea [12]; 1.25 gai/ha,0%
same,inhibition at 5 g/ha,Ipomoea hederacea [12]; 5 gai/ha,10%
same,inhibition at 1.25 g/ha,Amaranthus retroflexus [13]; 1.25 gai/ha,0%
same,inhibition at 5 g/ha,Amaranthus retroflexus [13]; 5 gai/ha,0%
same,inhibition at 1.25 g/ha,Abutilon theophrasti [14]; 1.25 gai/ha,5%
same,inhibition at 5 g/ha,Abutilon theophrasti [14]; 5 gai/ha,10%
"CC1(C)CON(Cc2ccc(Cl)cc2Cl)C1=O [Bixlozone, bixlozone]",% activity,Galium aparine; use rate 60 gai/ha,50%
same,% activity,"Abutilon theophrasti [3]; PRE, ABUTH, use rate 60 gai/ha",0%
same,% activity,"Euphorbia heterophylla; PRE, EPPHL, use rate 15 gai/ha",0%
same,% activity,"Euphorbia heterophylla; PRE, EPPHL, use rate 60 gai/ha",0%
same,% activity,Polygonum convolvulus; use rate 60 gai/ha,0%
